This note sets out measurements from PMC12466602, “Novel Hybrid Peptide DEFB126 (1-39)-TP5 Inhibits LPS-Induced Inflammatory Responses and Oxidative Stress by Neutralizing LPS and Blocking the TLR4/MD2-NFκB Signaling Axis” (Antioxidants, 2025).

Data set [1] in a line: Ex vivo stability in plasma (HPLC). The note with it: rat plasma, peptide 10 µg/mL, 37 °C, linear regression of log concentration-time, mean ± SD of 3 biological replicates.
Description: (§1) The above peptide solutions were incubated at 37 °C for varying lengths of time and then immediately transferred to pre-cooled test tubes containing 1 mL of acidic acetone (hydrochloric acid/acetone/H2O, v/v/v 1:40:5) to terminate the reaction. The concentration of the hydrochloric acid solution before dilution is 50 mM. The precipitate was subsequently separated by centrifugation at 20,000× g for 20 min at 4 °C. The obtained precipitates were dried in vacuo and then dissolved in 0.5 mL of 1 M acetic acid. Peptide analysis was conducted according to the protocol for the study of TP5 using HPLC [2]. Peptide half-lives were obtained by fitting a linear regression model based on logarithmic concentration-time.
The subject of the next data set is RAW264.7 cells. Nature of the data set: ROS generation (DCFH2-DA, fluorescence microscopy and flow cytometry). It is filed as cell-based. The note with it: RAW264.7, LPS 100 ng/mL 1 h, then DTP 12 h. On the procedure:
RAW264.7 cells (1 × 10^5 cells/mL cell density) were incubated with LPS (100 ng/mL) at 37 °C for 1 h. After that, cells were treated with DTP at 37 °C for 12 h. The cells were then stained with 5 μM DCFH2-DA for 30 min at 37 °C in the dark. The cells were then washed extensively with PBS before analysis by fluorescence microscope and flow cytometry.
In general terms: A flow cytometer gives signals particle by particle.

Data set [2] can be described thus: LPS neutralization, Chromogenic End-point Tachypleus Amebocyte Lysate (CE TAL) assay. The note with it: LPS 1.0 U/mL, peptide 0 to 128 μg/mL, 15 min at 37 °C, OD540; mean ± SD of 3 independent experiments. Type of data set: biochemical, E. coli. On the procedure:
The LPS-neutralizing ability of the peptides was assessed through a quantitative Chromogenic End-point Tachypleus Amebocyte Lysate (CE TAL) assay (Xiamen Bioendo Technology Co., Xiamen, China). LPS (final concentration 1.0 U/mL; E. coli, O55:B5) was incubated with different concentrations of the peptides (final concentration 0 to 128 μg/mL) for 15 min at 37 °C. Then, the mixtures were incubated with TAL assay reagent at 37 °C for 6 min, and the optical density at 540 nm was measured.

For data set [3], the system named is phosphorylation of IKK-β, IκB-α and NF-κB. Kind of data set: Western blot of NF-κB signaling pathway. Type of data set: cell-based. The note with it: LPS-stimulated. On the procedure: Samples were fractionated into cytoplasmic and nuclear components using the NR-PER Nuclear and Cytoplasmic Protein Extraction Kit (Thermo Fisher Scientific Inc., Waltham, MA, USA). Protein levels in each fraction were determined via a bicinchoninic acid (BCA) assay (KeyGEN Biotech, Nanjing, China). Subsequently, protein fractions were separated by 10% SDS-polyacrylamide gel electrophoresis and transferred to methanol-activated PVDF membranes (Bio-Rad, Hercules, CA, USA). After membrane transfer, the membranes were blocked with 5% skimmed milk, followed by incubation with phosphorylated antibodies: p-IKK-β, p-IкB-α, p-NF-кB (p-p65), and GAPDH (Santa Cruz), with shaking overnight at 4 °C. After TBST washing, the membranes were incubated with HRP-labeled species-matched secondary antibody (HuaAn Biologicals, Hangzhou, China) for 60 min at room temperature. The density of specific proteins was quantified using the ChemiDoc MP imaging system (Bio-Rad, Hercules, CA, USA).
A general note: Immunoblotting shows a protein as a band on a membrane.

For the next data set, the system named is RAW264.7 macrophages. Kind of data set: CCK-8 cell viability assay. The note with it: 24 h; for cell survival rate: RAW264.7, 10 μg/mL peptide, CCK-8, OD450. (Tetrazolium dyes change colour on reduction, which living cells bring about.)
Another data set relates to LPS-induced sepsis model. Nature of the data set: Murine LPS-induced sepsis / liver injury model. Type of data set: in vivo, C57BL/6 mice. The note with it: mice. On the procedure: Male C57BL/6 mice (6–8 weeks of age) were purchased from Charles River (Beijing, China). During the experiments, mice were housed in a specific-pathogen-free (SPF) environment with a temperature of 22 ± 1 °C and a relative humidity of 55 ± 10%. All the animal experiments were conducted with the approval of the Animal Care and Use Committee of China Agricultural University.
The mice were randomly divided into five groups of 12: control, LPS (E. coli O111: B4, Sigma-Aldrich, St. Louis, MO, USA), DEFB126 + LPS, TP5 + LPS, and DTP + LPS. The corresponding peptide (10 mg/kg) was injected intraperitoneally during the pretreatment stage. The control group was synchronized with the LPS group by injecting an equal amount of saline.
During the first 7 days of the experiment, each group received the above treatments once a day. On day 7, the LPS model group and the peptide pretreatment groups (DEFB126 + LPS, TP5 + LPS, and DTP + LPS) were injected intraperitoneally with 20 mg/kg of LPS to establish a sepsis model. The control group was injected with an equal volume of saline. Sixteen hours after the LPS injection, the mice were euthanized, and liver tissues and blood samples were collected. The serum was then separated by centrifugation and stored at −80 °C for measurement.
Mouse liver tissues were fixed with 4% paraformaldehyde, embedded in paraffin, and sliced continuously on a rotary slicer (Leica, RM2235, Nußloch, Germany) at a thickness of 5 μm. After dewaxing and rehydration, the tissues were subjected to Hematoxylin-Eosin (H&E) contrast staining. LPS-induced liver injury was evaluated according to a previous study. The liver injury score was graded on a 0- to 3-point scale: 0, no injury; 1, mild injury with cytoplasmic vacuolation; 2, moderate to severe injury consisting of extensive loss of intercellular borders and nuclear pyknosis; and 3, severe necrosis consisting of liver hemorrhage and neutrophil infiltration.
The levels of tumor necrosis factor (TNF)-α, interleukin (IL)-6, and IL-1β in the serum of mice were detected using commercial ELISA kits (eBioscience, San Diego, CA, USA). Commercial reagent kits (Nanjing Jiancheng Bioengineering Institute, Nanjing, China) were used to detect the levels of serum alanine amino transferase (ALT) and aspartate amino transferase (AST).

Another data set in a line: in vitro. The note with it: rat, plasma.
In data set [4] the target is Toll-like receptor 4/myeloid differentiation factor 2 (TLR4/MD-2) complex (UniProt Q9QUK6 26-835; Q9JHF9 19-160, The source, species and construct of the SPR protein are not stated. Mouse is inferred from the docking receptor (PDB 2Z64) and the mouse models. Limits by convention: TLR4 extracellular domain and ma). Nature of the data set: SPR; Biacore X100, CM5 chip, amine coupling; running buffer PBS with 0.05% Tween 20, 30 μL/min; peptide gradient 0, 1.25, 2.5, 5 and 10 mM as printed; 1:1 binding model; legend and results: TLR4/MD-2 immobilised and DTP flowed over (the methods say DTP was immobilised). The settings on record: both partners purified.

The mark [5] stands for this setting: ELISA, peptide 10 mg/kg i.p. pretreatment, LPS, 16 h.
Where [6] appears, read: peptide 10 mg/kg i.p. once daily pretreatment, then LPS i.p., 16 h after LPS.
Where [7] appears, read: peptide 10 mg/kg i.p. pretreatment, LPS, 16 h.

Marks after values point to notes of the source that are not given here. Where no end group is shown, it is not given here.

Sequence of Toll-like receptor 4/myeloid differentiation factor 2 (TLR4/MD-2) complex (Q9QUK6 26-835, chain 1 of 2): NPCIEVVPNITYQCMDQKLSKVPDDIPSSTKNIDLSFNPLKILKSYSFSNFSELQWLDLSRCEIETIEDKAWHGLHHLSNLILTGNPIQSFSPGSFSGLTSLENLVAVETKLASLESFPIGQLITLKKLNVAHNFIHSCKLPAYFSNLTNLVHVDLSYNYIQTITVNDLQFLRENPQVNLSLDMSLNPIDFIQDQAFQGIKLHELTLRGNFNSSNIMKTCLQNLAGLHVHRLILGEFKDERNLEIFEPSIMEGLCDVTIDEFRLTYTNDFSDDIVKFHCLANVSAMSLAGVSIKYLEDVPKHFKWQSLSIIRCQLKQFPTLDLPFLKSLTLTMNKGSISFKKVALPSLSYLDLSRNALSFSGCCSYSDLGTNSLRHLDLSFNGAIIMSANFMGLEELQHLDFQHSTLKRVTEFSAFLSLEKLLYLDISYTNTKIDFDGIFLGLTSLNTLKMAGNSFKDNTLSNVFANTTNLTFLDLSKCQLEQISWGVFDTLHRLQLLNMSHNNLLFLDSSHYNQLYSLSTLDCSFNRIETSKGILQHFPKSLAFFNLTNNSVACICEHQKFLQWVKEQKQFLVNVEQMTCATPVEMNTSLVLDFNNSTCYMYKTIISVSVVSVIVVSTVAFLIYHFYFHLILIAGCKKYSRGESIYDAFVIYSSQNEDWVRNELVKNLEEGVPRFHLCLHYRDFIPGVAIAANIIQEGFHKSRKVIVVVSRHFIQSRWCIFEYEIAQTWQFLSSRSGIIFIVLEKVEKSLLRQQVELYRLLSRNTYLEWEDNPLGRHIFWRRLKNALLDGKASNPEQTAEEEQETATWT
Sequence of Toll-like receptor 4/myeloid differentiation factor 2 (TLR4/MD-2) complex (Q9JHF9 19-160, chain 2 of 2): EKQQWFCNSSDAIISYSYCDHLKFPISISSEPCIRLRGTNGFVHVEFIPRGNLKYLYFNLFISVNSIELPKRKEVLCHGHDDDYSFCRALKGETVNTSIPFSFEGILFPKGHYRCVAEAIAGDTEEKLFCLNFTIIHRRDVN
Description for RAW264.7 macrophages: RAW 264.7 cells were maintained in DMEM medium containing 10% (v/v) fetal bovine serum and 1% (v/v) penicillin-streptomycin at 37 °C, 5% CO2.
RAW264.7 cells (3 × 10^4 cells/mL) were plated in 96-well plates in 100 μL DMEM overnight and then cultured in fresh medium containing a 2-fold concentration of peptide for another 24 h. Add 10 μL of CCK-8 solution to each well and incubate for 4 h away from light. Then, the optical density at 450 nm was measured using a microplate reader. Cell viability was determined byCell viability (%) = (OD450 (sample)/OD450 (control)) × 100%(1) where OD450 (sample) is the absorbance at 450 nm of the cells with peptides treated and OD450 (control) is the absorbance at 450 nm of the cells without peptides treated.
Description for in vitro: as §1

In the case of “NWYVKKCLNDVGICKKKCKPEEMHVKNGWAMCGKQRDCCRKDVY (cysteines drawn unpaired) [DTP]”, in data set [1], the t1/2 in plasma was 349 ± 69.17 ^a min. Further, the “LPS-induced ROS generation” value in the data set with RAW264.7 cells is reported as “remarkably attenuated”. The “50% neutralization rate value” in data set [2] is reported as “approximately 11.58 ± 2.07 μg/mL”. The “LPS-induced phosphorylation of IKK-β, IκB-α and NF-κB” value in data set [3] is reported as “significantly inhibited”. Moreover, the cell survival rate result in the data set with RAW264.7 macrophages is listed as “higher than 80%”. In the data set with RAW264.7 macrophages (RAW264.7, 2-fold series of concentrations, CCK-8), the “cytotoxicity compared with parental peptides” value was “significantly lower than DEFB126 and TP5”. For the same molecule, in the data set with LPS-induced sepsis model (setting [5]), the “serum IL-1β level” value was “significantly decreased”, the “serum IL-6 level” value was “significantly decreased” and the “serum TNF-α level” value was “significantly decreased”. For the same molecule, in the data set on LPS-induced sepsis model (H&E, 0- to 3-point scale, peptide 10 mg/kg i.p. pretreatment, LPS, 16 h), the liver injury score entry is “significantly lower liver injury score than the LPS-treated, TP5-pretreated, and DEFB126-pretreated groups”. For the same molecule, in the data set with LPS-induced sepsis model (setting [6]), the “serum ALT level” value was “markedly lower than those in the TP5-pretreated group and DEFB126-pretreated group”; the “serum AST level” value is “markedly lower than those in the TP5-pretreated group and DEFB126-pretreated group”. Besides, in the data set with LPS-induced sepsis model (setting [7]), the “liver CAT activity” value was “significantly reversed these effects”, the “liver GSH-Px activity” value is on record as “significantly reversed these effects” and the “liver SOD activity” value is “significantly reversed these effects”.
Turning to “NWYVKKCLNDVGICKKKCKPEEMHVKNGWAMCGKQRDCCVPAD (cysteines drawn unpaired) [DEFB126]”, in “in vitro”, the half-life (usually the time needed for the level to fall by half in the phase considered) at 10 µg/mL is 5.41 ± 0.885 h. Further, in the data set on RAW264.7 macrophages, the cell survival rate result was “higher than 80%”.

B1: hybrid peptide DEFB126 (1-39)-TP5 (peptide)
peptide: NWYVKKCLNDVGICKKKCKPEEMHVKNGWAMCGKQRDCCRKDVY
notes: DEFB126 (1-39): residues 21-59 of human β-defensin 126 (111 amino acids); thymopentin (TP5), the core active fragment of thymopoietin, full-length TP5; whether disulfide bonds form is left open by the authors; also called DTP; DTP peptide; source: synthetic peptide (KangLong Biochemistry, 95% purity)
Consider B1, for which the Kd (as a rule, the concentration at which binding is half-saturated) in data set [4] worked out at 2.3 µM.
